In US6355785B1, “Guanosine-rich oligonucleotide integrase inhibitors” (Aronex Pharmaceuticals, Inc., priority 1993, dated 2002):
Read-outs that look alike come from different tables or passages of the source.

How the values were obtained:
[1] = test system: HIV-1 laboratory isolates; assay: HIV-1 infection of PBMCs (p24); type: cell-based; settings: read-out: IC50 viral production
[2] = test system: HIV-1 infected PBMCs
[3] = test system: HIV-1 strains (SKI, RF, DV, IIIB, ADP/141); assay: microbe, parasite or virus in culture; type: cell-based; settings: Human immunodeficiency virus 1, IIIB
[4] = test system: HIV-1 clinical isolates; assay: microbe, parasite or virus in culture; type: cell-based

Cc1cn([C@H]2C[C@H](N=[N+]=[N-])[C@@H](CO)O2)c(=O)[nH]c1=O [AZT, 3′-azido-3′-deoxythymidine]
IC50 ([1]; Human immunodeficiency virus 1, IIIB, PBMC, HIV-1 IIIB): 3 ± 0.2 nM
IC50 ([1]; Human immunodeficiency virus 1, PBMC, HIV-1 JRCSF): 2.5 ± 1 nM
IC50 ([1]; Human immunodeficiency virus 1, PBMC, HIV-1 MN): 53 ± 1 nM
IC50 ([1]; Human immunodeficiency virus 1, PBMC, HIV-1 RF): 272 ± 3 nM
% CD4 ([2]; IIIB, drug 0.1 μM, day 7): 31%
% CD8 ([2]; IIIB, drug 0.1 μM, day 7): 79%
% CD4 ([2]; IIIB, drug 1.0 μM): 30%
% CD8 ([2]; IIIB, drug 1.0 μM): 81%
% CD4 ([2]; IIIB, drug 5.0 μM): 27%
% CD8 ([2]; IIIB, drug 5.0 μM): 86%
% CD4 ([2]; MN, drug 0.1 μM): 25%
% CD8 ([2]; MN, drug 0.1 μM): 82%
% CD4 ([2]; MN, drug 1.0 μM): 35%
% CD8 ([2]; MN, drug 1.0 μM): 79%
% CD4 ([2]; MN, drug 5.0 μM): 36%
% CD8 ([2]; MN, drug 5.0 μM): 78%
% CD4 ([2]; N. Amer. #1, drug 0.1 μM): 25%
% CD8 ([2]; N. Amer. #1, drug 0.1 μM): 83%
% CD4 ([2]; N. Amer. #1, drug 1.0 μM): 25%
% CD8 ([2]; N. Amer. #1, drug 1.0 μM): 84%
% CD4 ([2]; N. Amer. #1, drug 5.0 μM): 26%
% CD8 ([2]; N. Amer. #1, drug 5.0 μM): 85%
% CD4 ([2]; N. Amer. #2, drug 0.1 μM): 6%
% CD8 ([2]; N. Amer. #2, drug 0.1 μM): 95%
% CD4 ([2]; N. Amer. #2, drug 1.0 μM): 13%
% CD8 ([2]; N. Amer. #2, drug 1.0 μM): 89%
% CD4 ([2]; N. Amer. #2, drug 5.0 μM): 25%
% CD8 ([2]; N. Amer. #2, drug 5.0 μM): 85%
% CD4 ([2]; RF, drug 0.1 μM): 23%
% CD8 ([2]; RF, drug 0.1 μM): 84%
% CD4 ([2]; RF, drug 1.0 μM): 32%
% CD8 ([2]; RF, drug 1.0 μM): 76%
% CD4 ([2]; RF, drug 5.0 μM): 34%
% CD8 ([2]; RF, drug 5.0 μM): 81%
% CD4 ([2]; SE Asia isolate, drug 0.1 μM): 29%
% CD8 ([2]; SE Asia isolate, drug 0.1 μM): 82%
% CD4 ([2]; SE Asia isolate, drug 1.0 μM): 31%
% CD8 ([2]; SE Asia isolate, drug 1.0 μM): 82%
% CD4 ([2]; SE Asia isolate, drug 5.0 μM): 29%
% CD8 ([2]; SE Asia isolate, drug 5.0 μM): 86%
IC50 ([3]; CEM-SS, read-out: Antiviral Assay IC50 IIIB, HIV-1 IIIB, CEM-SS or MT4): 2 nM
IC50 ([3]; CEM-SS, read-out: Antiviral Assay IC50 RF, HIV-1 RF, CEM-SS or MT4): 7 nM
IC50 ([3]; CEM-SS, read-out: Antiviral Assay IC50 SKI, HIV-1 SKI, CEM-SS or MT4): 22 nM
IC50 ([3]; CEM-SS, read-out: IC50 (cpe assay), RF (CEM-SS), MOI 0.01): 10 nM
IC50 ([3]; CEM-SS, read-out: IC50 (cpe assay), RF (CEM-SS), MOI 0.02): 20 nM
IC50 ([3]; CEM-SS, read-out: IC50 (cpe assay), RF (CEM-SS), MOI 0.04): 70 nM
IC50 ([3]; CEM-SS, read-out: IC50 (cpe assay), RF (CEM-SS), MOI 0.64): > 10000 nM
IC50 ([3]; CEM-SS, read-out: IC50 (cpe assay), RF (CEM-SS), MOI 1.28): > 10000 nM
IC50 ([3]; CEM-SS, read-out: IC50 virus production, HIV-1 IIIB, CEM-SS): 2 ± 0.3 nM
IC50 ([3]; CEM-SS, read-out: IC50 virus production, HIV-1 RF, CEM-SS, MOI 0.01): 7 nM
IC50 ([3]; CEM-SS, read-out: IC50 virus production, HIV-1 SKI, CEM-SS, MOI 0.01): 22 ± 0.1 nM
IC90 ([3]; CEM-SS, read-out: IC90 (cpe assay), RF (CEM-SS), MOI 0.16): > 10000 nM
IC90 ([3]; CEM-SS, read-out: IC90 (cpe assay), RF (CEM-SS), MOI 0.32): > 10000 nM
IC90 ([3]; CEM-SS, read-out: IC90 (cpe assay), RF (CEM-SS), MOI 0.64): > 10000 nM
IC90 ([3]; CEM-SS, read-out: IC90 (cpe assay), RF (CEM-SS), MOI 1.28): > 10000 nM
IC50 ([3]; SUP-T1, read-out: IC50 virus production, HIV-1 DV, SUP T1): 30 ± 5 nM
IC50 ([3]; SUP-T1, read-out: IC50 virus production, HIV-1 IIIB, SUP T1): 30 ± 6 nM
IC50 ([3]; read-out: IC50 (cpe assay)): 37 nM
IC50 ([3]; read-out: IC50 (cpe assay), IIIB (MT4), MOI 0.01): 10 nM
IC50 ([3]; read-out: IC50 virus production, HIV-1 IIIB, AA5): < 3 nM
IC50 ([3]; read-out: IC50 virus production, HIV-1 IIIB, MT2): 10 ± 4 nM
IC50 ([3]; read-out: IC50 virus production, HIV-1 RF, MT2): 30 ± 5 nM
IC90 ([3]; read-out: IC90 (cpe assay), IIIB (MT4), MOI 0.3): 3300 nM
IC50 ([4]; Human immunodeficiency virus 1, read-out: IC50 values over the clinical isolates tested in PBLs, range over isolates): 10 to 1650 nM
IC50 ([4]; Human immunodeficiency virus 1, read-out: IC50 viral production, PBLs, clinical isolate 942716): 2 ± 3 nM
IC50 ([4]; Human immunodeficiency virus 1, read-out: IC50 viral production, PBLs, clinical isolate 942751): 28 ± 2.5 nM
IC50 ([4]; Human immunodeficiency virus 1, read-out: IC50 viral production, PBLs, clinical isolate BAKI (SI)): 20 ± 6 nM
IC50 ([4]; Human immunodeficiency virus 1, read-out: IC50 viral production, PBLs, clinical isolate BLCH (NSI)): 22 ± 0.8 nM
IC50 ([4]; Human immunodeficiency virus 1, read-out: IC50 viral production, PBLs, clinical isolate JOGA (NSI)): > 1000 nM
IC50 ([4]; Human immunodeficiency virus 1, read-out: IC50 viral production, PBLs, clinical isolate N. Amer. #1): 10 ± 4 nM
IC50 ([4]; Human immunodeficiency virus 1, read-out: IC50 viral production, PBLs, clinical isolate N. Amer. #2): 1650 ± 7 nM
IC50 ([4]; Human immunodeficiency virus 1, read-out: IC50 viral production, PBLs, clinical isolate ROJO (SI)): 52 ± 0.4 nM
IC50 ([4]; Human immunodeficiency virus 1, read-out: IC50 viral production, PBLs, clinical isolate S. E. Asia): 60 ± 5 nM
IC50 ([4]; Human immunodeficiency virus 1, read-out: IC50 viral production, PBLs, clinical isolate VIHU (NSI)): 36 ± 0.7 nM
IC50 ([4]; Human immunodeficiency virus 1, read-out: IC50 viral production, PBLs, clinical isolate WEJO (SI)): 17 ± 0.1 nM
IC50 ([4]; Human immunodeficiency virus 1, read-out: IC50 viral production, PBLs, clinical isolate WOME (SI)): 25 ± 0.3 nM
